According to patent publication US5635514A, “Heteroaralkyl and heteroarylthioalkyl thiophenolic compounds as 5-lipoxgenase inhibitors” (G. D. Searle & Company, priority 1994, dated 1997):

What was measured:
[1] = target: T1, Human recombinant 5-lipoxygenase (Homo sapiens, UniProt P09917); assay: Recombinant 5-Lipoxygenase Inhibition Assay; format: biochemical; details: 25° C., 8 minutes, absorbance at 240 nm
T1 construct: made in house; host or cells: E. coli
T1 sequence (P09917 1-674): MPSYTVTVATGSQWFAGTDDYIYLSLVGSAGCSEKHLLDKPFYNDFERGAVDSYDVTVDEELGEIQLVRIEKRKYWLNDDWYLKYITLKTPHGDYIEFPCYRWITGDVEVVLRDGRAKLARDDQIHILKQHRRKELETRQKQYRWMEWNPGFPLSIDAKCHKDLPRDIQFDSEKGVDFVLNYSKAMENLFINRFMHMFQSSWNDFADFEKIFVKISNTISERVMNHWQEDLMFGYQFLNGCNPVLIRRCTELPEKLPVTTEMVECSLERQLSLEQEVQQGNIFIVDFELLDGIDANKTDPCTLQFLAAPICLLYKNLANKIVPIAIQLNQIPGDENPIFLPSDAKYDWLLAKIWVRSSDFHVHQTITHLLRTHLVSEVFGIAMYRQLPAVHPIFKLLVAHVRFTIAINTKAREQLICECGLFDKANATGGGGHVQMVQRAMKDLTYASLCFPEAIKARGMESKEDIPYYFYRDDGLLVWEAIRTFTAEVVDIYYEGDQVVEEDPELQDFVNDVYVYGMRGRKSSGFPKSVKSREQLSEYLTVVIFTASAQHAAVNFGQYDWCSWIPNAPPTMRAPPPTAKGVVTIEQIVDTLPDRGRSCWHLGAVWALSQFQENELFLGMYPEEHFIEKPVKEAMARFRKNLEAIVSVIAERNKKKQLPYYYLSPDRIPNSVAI
Protocol: The compounds of the present invention were evaluated with respect to 5-lipoxygenase inhibition according to the Recombinant 5-Lipoxygenase Inhibition Assay described below.
Human 5-lipoxygenase expressed in E. coli as a soluble protein was prepared in the manner described by M. Noguchi et al., "Expression of Human 5-Lipoxygenase cDNA in E. coli," FEBS Letters, Vol. 249, No. 2, 267-270 (1989), which is incorporated herein by reference. The human 5-lipoxygenase was partially purified by ion exchange chromatography and stored in 50 mM Tris-HCl buffer (pH 8.1) containing 150 mM NaCl, 2 mM EDTA, 2 mM DTT, and 50% glycerol at -70° C. before use.
The following solutions were prepared as indicated: CaCl2 /ATP, 12.5 mM CaCl2 and 5 mM ATP in H2 O; arachidonic acid, 4 mM in ethanol; potassium phosphate buffer, 50 mM potassium phosphate and 0.1 mM EDTA, pH 7.2. Test compounds were first prepared at 10 mM in DMSO and further diluted to desirable concentrations with DMSO.
The assay was carried out in a quartz cuvette to which 15 μl CaCl2 /ATP, 7.5 μl arachidonic acid, 7.5 μl ethanol or test compound, and 710 μl potassium phosphate buffer, in that order, were added and mixed. The mixture was prewarmed to 25° C. The enzymatic reaction was started by adding 10 μl of 5-lipoxygenase enzyme (~0.2 mg protein), and the formation of the reaction product 5-HPETE/5-HETE at 25° C. for 8 minutes was determined by measuring the increase in the absorbance at 240 nm using a Beckman DU-7 spectrophotometer.
The results for this assay are expressed in terms of activity with respect to 5-lipoxygenase inhibition as an IC50 value (50% inhibitory concentration).

[2] = system: TPA-induced ear inflammation (Mouse, Ear); assay: Tetradecanoylphorbol Acetate (TPA) Assay (TPA-induced mouse ear inflammation); format: in vivo; details: 50 mpk, ip + 120 minute; for TPA Edema (% Inhibition): ear thickness
Protocol: The compounds of the present invention were evaluated with respect to 5-lipoxygenase inhibition according to the Tetradecanoylphorbol Acetate (TPA) Assay which is described in Rao et al., "Comparative Evaluation of Arachidonic Acid (AA)--And Tetradecanoylphorbol Acetate (TPA)-Induced Dermal Inflammation." Inflammation, Vol. 17, No. 6, 723-741 (1993), which is incorporated herein by reference.
In this study, selective 5-lipoxygenase inhibitors, such as zileuton, MK-886, LTB4 and LTD4 receptor […] were evaluated in acute inflammatory responses elicited by the topical application of TPA to the ears of mice. The increases in edema and myeloperoxidase (MPO) were used as readouts of inflammatory responses.
Animals. Female BALB/c mice (17-25 g; Jackson Labs, Bar Barbor, Me.) or male Swiss Webster mice (Charles River, Portage, Mich.) were used in the studies. The animals were housed in a vivarium with a 12-hour lighting schedule (0600-1800 hours on) with free access to food and water. Housing and experimental procedures were conducted according to institutionally approved (Monsanto, St. Louis, Mo. and National Institute of Health) guidelines.
Drugs and Reagents. Hexadecyltrimethylammonium bromide (HTAB), and TPA were purchased from Sigma Chemical Co. (St. Louis, Mo.). Human polymorphonuclear leukocyte myeloperoxidase (20 units/mg protein) was obtained from Calbiochem (San Diego, Calif.). One unit of MPO was defined as the activity of the enzyme that oxidizes 1 μmol of hydrogen peroxide per minute at 25° C.
TPA Inflammation Model. […] Four hours following the application of TPA, increases in ear thickness were measured and ears were excised for MPO measurements.
Measurement of MPO. […] The rate of change of absorbance was monitored in kinetic mode by a plate reader (Molecular Devices, Menlo Park, Calif.). Levels of MPO in lavage samples were determined from the calibration curves using human neutrophil MPO as the reference standard. The levels of MPO were expressed as milliunits per ear. […]

[3] = system: LTB4 production by calcium ionophore stimulated human blood; assay: Human Whole Blood LTB4 Assay (calcium ionophore stimulated LTB4 production); format: cell-based; details: calcium ionophore A23187, LTB4
Protocol: (§1) (c) LTB4 and Thromboxane Production by Calcium Ionophore Stimulated Human Blood--Human Whole Blood LTB4 Assay
(§2) The compounds of the present invention were evaluated with respect to 5-lipoxygenase inhibition according to the Human Whole Blood LTB4 Assay described below.
(§3) Human whole blood was collected in heparin containing Vacutainer brand tubes. The blood was diluted with RPMI-1640 cell culture media [1:4] (Gibco, Grand Island, N.Y.) and 200 microliters were added per well in 96 well microtiter plates. Compounds of the present invention diluted in dimethylsulfoxide were added to the blood and allowed to incubate for 15 minutes at 37° C. in a humidified incubator. Calcium ionophore A23187 [20 mcg/ml final concentration, Sigma Chemical Co., St. Louis, Mo.] was added, and the incubation was continued for 10 minutes. The incubation was terminated by centrifugation [833 g, 10 minutes at 4° C.]. Supernatants were analyzed for LTB4 and thromboxane by commercially available enzyme-linked immunoassays [Caymen Chemical Co., Ann Arbor, Mich.]. Test compounds which inhibit 5-lipoxygenase in this assay inhibit the formation of LTB4 and cause reduced levels of this agent in the supernatant.
(§4) The results of this assay are expressed in terms of activity with respect to 5-lipoxygenase inhibition as an IC50 value (50% inhibitory concentration).

[4] = system: Thromboxane production by calcium ionophore stimulated human blood; assay: Human Whole Blood Assay, thromboxane production (calcium ionophore stimulated); format: cell-based; details: calcium ionophore A23187, thromboxane
Protocol: as §1, §2, §3, §4

Row | Structure (SMILES) | IC50 [1] [µM] | IC50 [3] [µM] | IC50 [4] [µM] | TPA Edema (% Inhibition) [2] [%] | TPA MPO (% Inhibition) ([2]; myeloperoxidase) [%]
1 | CC(C)(C)c1cc(SCC(O)Cn2ccc3ncnc-3c2)cc(C(C)(C)C)c1O (racemic) [Compound 27, (±) 2,6-bis(1,1-dimethylethyl)-4-[[2-hydroxy-3-(5H-imidazo[4,5-c]pyridin-5-yl]propylthio]phenol Hydrate] | 1.1 ± 0.23 | 7.42 | 37.3 | 46 | 
2 | CC(C)(C)c1cc(SCCSc2nc3ccccc3o2)cc(C(C)(C)C)c1O [Compound 26, 2,6-bis(1,1-dimethylethyl)-4-[[2-[(1,3-benzoxazol-2-yl)thio]ethyl]thio]phenol Hydrate] | 0.93 ± 0.16 | 11.1 | 9.1 |  | 
3 | CC(C)(C)c1cc(SCCCn2cnc3ccncc32)cc(C(C)(C)C)c1O [Compound 15, 2,6-bis(1,1-dimethylethyl)-4-[[3-(1H-imidazo[5,4-c]pyridin-1-yl]propyl]thio]phenol] | 0.49 ± 0.04 | 6.27 | 14.4 |  | 
4 | CC(C)(C)c1cc(SCCCn2ccc3ccccc32)cc(C(C)(C)C)c1O [Compound 24, 2,6-bis(1,1-dimethylethyl)-4-[[3-(1H-indol-1-yl)propyl]thio]phenol Hydrate] | 0.48 ± 0.09 |  |  |  | 
5 | CC(C)(C)c1cc(SCc2nc3cccnc3[nH]2)cc(C(C)(C)C)c1O [Compound 29, 2,6-bis(1,1-dimethylethyl)-4-[[(3H-imidazo-[4,5-b]pyridin-2-yl)methyl]thio]phenol] | 1.8 ± 0.3 | 20.1 | 50 |  | 
6 | CC(C)(C)c1cc(SCCCn2ccc3ncnc-3c2)cc(C(C)(C)C)c1O [Compound 5, 2,6-bis(1,1-dimethylethyl)-4-[[3-(5H-imidazo-[4,5-c]pyridin-5-yl)propyl]thio]phenol] | 0.57 ± 0.07 | 13.3 | 50 | 42 | 24
7 | CC(C)(C)c1cc(SCCn2ccc3ncnc-3c2)cc(C(C)(C)C)c1O [Compound 8, 2,6-bis(1,1-dimethylethyl)-4-[[2-(5H-imidazo-[4,5-c]pyridin-5-yl)ethyl]thio]phenol Hydrate] | 4.48 ± 0.36 |  |  |  | 
8 | CC(C)(C)c1cc(SCCCCn2ccc3ncnc-3c2)cc(C(C)(C)C)c1O [Compound 14, 2,6-bis(1,1-dimethylethyl)-4-[[4-(5H-imidazo-[4,5-c]pyridin-5-yl)butyl]thiophenol Hydrate] | 0.41 ± 0.02 |  |  |  | 

The next lines start with results.

Row | IC50 [1] [µM] | IC50 [3] [µM] | IC50 [4] [µM] | Structure (SMILES) | TPA Edema (% Inhibition) [2] [%] | TPA MPO (% Inhibition) ([2]; myeloperoxidase) [%]
9 | 0.32 ± 0.02 |  |  | CC(C)(C)c1cc(SCCCn2cnc3cccnc32)cc(C(C)(C)C)c1O [Compound 18, (2,6-bis(1,1-dimethylethyl)-4-[[3-(1H-imidazo[5,4-b]pyridin-1-yl)propyl]thio]phenol Hydrate] |  | 
10 | 0.34 ± 0.1 |  |  | CC(C)(C)c1cc(SCCCn2cnc3cnccc32)cc(C(C)(C)C)c1O [Compound 16, 2,6-bis(1,1-dimethylethyl)-4-[[3-(1H-imidazo[4,5-c]pyridin-1-yl)propyl]thio]phenol] |  | 
11 | 0.36 ± 0.07 | 6.62 | > 39 | CC(C)(C)c1cc(SCCCn2cnc3ncccc32)cc(C(C)(C)C)c1O [Compound 19, 2,6-bis(1,1-dimethylethyl)-4-[[3-1H-imidazo[4,5-b]pyridin-1-yl)propyl]thio]-phenol Hydrate] |  | 
12 | 0.14 ± 0.02 | 2.26 | 18.6 | CC(C)(C)c1cc(SCCCn2cnc3ccccc32)cc(C(C)(C)C)c1O [Compound 21, 2,6-bis(1,1-dimethylethyl)-4-[[3-(1H-benzimidazol-1-yl)propyl]thio]phenol] |  | 
